Tested on: phospho-p90 RSK (RSK1 Thr359/Ser363) in A375 (Braf V600E) cells
Assay: Phospho-p90 RSK ELISA using A375 (Braf V600E) cells
Assay type: cell-based
Conditions: Homo sapiens, A-375, 2 hours compound treatment, read-out: Cellular Phospho-p90RSK IC50
Procedure: In preparation for the assay, an ELISA plate with the pre-coated goat anti-mouse antibody (Thermo Scientific) was treated with a mouse anti-human RSK1 antibody (monoclonal, Invitrogen) at 1:800 dilution (150 ng/well) in PBS, and the plate was placed on a plate shaker at 4° C. overnight. […] After two […] of the compound treatment, the supernatant was removed from the cell plate, and cells were lysed in 100 μl per well of cell lysis buffer (Cell Signaling Technologies) containing phosphatase and protease inhibitors (Cell Signaling Technologies) on a plate shaker at 4° C. for 20 minutes. The ELISA plate was washed four times with ELISA wash buffer (Thermo Scientific) prior to addition of 100 μL cell lysate. The lysate was incubated on the ELISA plate with gentle shaking at room temperature for 2 hours. The contents of the wells were removed, and the ELISA plate was washed four times with wash buffer, and incubated with 100 μL per well of anti-phospho-RSK1 (Thr359/Ser363) rabbit monoclonal antibody (Millipore) at dilution of 1:1000 in StartingBlock buffer (Thermo Scientific) on a plate shaker at room temperature for 1 hour. The contents of the wells were removed, the ELISA plate was washed four times with wash buffer, and was incubated with 100 μL per well of goat anti-rabbit HRP (Thermo Scientific) at dilution of 1:3000 in StartingBlock buffer (Thermo Scientific) on a plate shaker at room temperature for 1 hour. The contents of the wells were removed, the ELISA plate was washed four times with wash buffer, and then incubated with 100 μL per well of TMB substrate solution (Thermo Scientific) on a plate shaker at room temperature for 20 minutes. Finally, 100 μL of TMB stop solution (Thermo Scientific) was added to each well and the absorbance is measured at 450 nm on a Tecan plate reader.

Structure (SMILES) | IC50
COc1ncccc1CN1CCC[C@@H](N2Cc3cc4c(-c5ccnc(C)c5)n[nH]c4cc3NC2=O)C1 [Example 150] | ≤ 250 nM
Cc1cc(-c2n[nH]c3cc4c(cc23)CN(C2CCN(CCc3ccccc3)CC2)C(=O)N4)ccn1 [Example 157] | > 1000 nM
Cc1cc(-c2n[nH]c3cc4[nH]c(=O)c(C(C)C5CCCCC5)cc4cc23)ccn1 (centres unmarked) [Example 160] | > 1000 nM
Cc1cc(-c2n[nH]c3cc4c(cc23)CN([C@@H]2CCCN(C(=O)c3ccccc3)C2)C(=O)N4)ccn1 [Example 172] | 250 to 1000 nM
Cc1cc(-c2n[nH]c3cc4c(cc23)CN(CCNCc2ccc(F)c(Cl)c2)C(=O)N4)ccn1 [Example 173] | > 1000 nM
Cc1cc(-c2n[nH]c3cc4c(cc23)CN(CCNCc2ccc(F)cc2)C(=O)N4)ccn1 [Example 175] | 250 to 1000 nM
Cc1cc(-c2n[nH]c3cc4c(cc23)CN(CCNCc2cccc(Cl)c2)C(=O)N4)ccn1 [Example 176] | 250 to 1000 nM
Cc1cc(-c2n[nH]c3cc4c(cc23)CN([C@@H]2CCC[C@H](NCc3ccccc3)C2)C(=O)N4)ccn1 [Example 177] | 250 to 1000 nM
Cc1cc(-c2n[nH]c3cc4c(cc23)CN([C@@H]2CCCN(Cc3cc(C(C)(C)C)no3)C2)C(=O)N4)ccn1 [Example 186] | 250 to 1000 nM
Cc1cc(-c2n[nH]c3cc4c(cc23)CN(C2CN(Cc3ccccc3)C2)C(=O)N4)ccn1 [Example 191] | 250 to 1000 nM
Cc1cc(-c2n[nH]c3cc4c(cc23)CN(C2CN(CCc3ccccc3)C2)C(=O)N4)ccn1 [Example 192] | 250 to 1000 nM
Cc1cc(-c2n[nH]c3cc4c(cc23)CN(CC2CCCN(Cc3ccccc3)C2)C(=O)N4)ccn1 (centres unmarked) [Example 208] | > 1000 nM
Cc1cc(-c2n[nH]c3cc4c(cc23)CN(Cc2ccccc2Cl)C(=O)N4)ccn1 [Example 217] | ≤ 250 nM
Cc1cc(-c2n[nH]c3cc4c(cc23)CN(Cc2ccccc2C(F)(F)F)C(=O)N4)ccn1 [Example 218] | 250 to 1000 nM
Cc1cc(-c2n[nH]c3cc4c(cc23)CN(CCC2CCOCC2)C(=O)N4)ccn1 [Example 220] | ≤ 250 nM
CC(C)c1cc(-c2n[nH]c3cc4c(cc23)CN(Cc2cccc(Cl)c2)C(=O)N4)ccn1 [Example 230] | 250 to 1000 nM
Cc1cc(-c2n[nH]c3cc4c(cc23)CN(C2CCC(=O)N(Cc3ccccc3)C2)C(=O)N4)ccn1 (centres unmarked) [Example 232] | 250 to 1000 nM
Cc1cc(-c2n[nH]c3cc4c(cc23)CN(Cc2ccc(C(F)(F)F)cc2)C(=O)N4)cc(C)n1 [Example 233] | ≤ 250 nM
Cn1nccc1-c1n[nH]c2cc3c(cc12)CN(Cc1cccc(Cl)c1)C(=O)N3 [Example 235] | > 1000 nM
Cc1cc(-c2n[nH]c3cc4c(cc23)CN([C@@H]2CCCN(c3cccc(C)n3)C2)C(=O)N4)ccn1 [Example 238] | ≤ 250 nM
Cc1cc(-c2n[nH]c3cc4c(cc23)CN(Cc2nc(C)cs2)C(=O)N4)ccn1 [Example 246] | ≤ 250 nM
Cc1cc(-c2n[nH]c3cc4c(cc23)CN([C@@H]2CCN(c3cccc(Cl)c3)C2)C(=O)N4)ccn1 [Example 249] | ≤ 250 nM
Cc1cc(-c2n[nH]c3cc4c(cc23)CN(CC2CCOCC2)C(=O)N4)cc(C)n1 [Example 250] | ≤ 250 nM
Cn1cc(-c2n[nH]c3cc4c(cc23)CN([C@@H]2CCN(CC(F)(F)F)C2)C(=O)N4)cn1 [Example 259] | ≤ 250 nM

The remaining lines, values ahead:

IC50 | Structure (SMILES)
250 to 1000 nM | Cc1cc(-c2n[nH]c3cc4c(cc23)CN([C@@H]2CCCN(CCc3ccccc3)C2)C(=O)N4)ccn1 [Example 145]
250 to 1000 nM | Cc1cc(-c2n[nH]c3cc4c(cc23)CN([C@@H]2CCCN(CCC3CC3)C2)C(=O)N4)ccn1 [Example 155]
250 to 1000 nM | Cc1cc(-c2n[nH]c3cc4c(cc23)CN([C@@H]2CCCN(Cc3ccc(Cl)cc3)C2)C(=O)N4)ccn1 [Example 159]
> 1000 nM | Cc1cc(-c2n[nH]c3cc4c(cc23)CN([C@@H]2CCCN(CCc3cccc(Cl)c3)C2)C(=O)N4)ccn1 [Example 164]
> 1000 nM | Cc1cc(-c2n[nH]c3cc4c(cc23)CN([C@@H]2CCCN(Cc3cncnc3)C2)C(=O)N4)ccn1 [Example 166]
> 1000 nM | Cc1cc(-c2n[nH]c3cc4c(cc23)CN([C@@H]2CCCN(CCc3ccc(F)cc3)C2)C(=O)N4)ccn1 [Example 167]
250 to 1000 nM | Cc1cc(-c2n[nH]c3cc4c(cc23)CN([C@@H]2CCCN(Cc3ncccc3C)C2)C(=O)N4)ccn1 [Example 168]
250 to 1000 nM | Cc1cc(-c2n[nH]c3cc4c(cc23)CN([C@@H]2CCCN(CCC(C)C)C2)C(=O)N4)ccn1 [Example 169]
250 to 1000 nM | Cc1cc(-c2n[nH]c3cc4c(cc23)CN([C@@H]2CCCN(Cc3cccnc3C)C2)C(=O)N4)ccn1 [Example 170]
> 1000 nM | Cc1cc(-c2n[nH]c3cc4c(cc23)CN([C@@H]2CCCN(Cc3ccccn3)C2)C(=O)N4)ccn1 [Example 171]
250 to 1000 nM | Cc1cc(-c2n[nH]c3cc4c(cc23)CN([C@@H]2CCCN(CC3(C)CC3)C2)C(=O)N4)ccn1 [Example 182]
250 to 1000 nM | Cc1cc(-c2n[nH]c3cc4c(cc23)CN([C@@H]2CCCN(Cc3cnccc3C)C2)C(=O)N4)ccn1 [Example 183]
≤ 250 nM | Cc1cc(-c2n[nH]c3cc4c(cc23)CN([C@@H]2CCCN(Cc3cc(C5CC5)on3)C2)C(=O)N4)ccn1 [Example 188]
> 1000 nM | Cc1cc(-c2n[nH]c3cc4c(cc23)CN(C2CN(CCC3CC3)C2)C(=O)N4)ccn1 [Example 189]
250 to 1000 nM | Cc1cc(-c2n[nH]c3cc4c(cc23)CN([C@@H]2CCCN(C3CCCCC3)C2)C(=O)N4)ccn1 [Example 194]
250 to 1000 nM | Cc1cc(-c2n[nH]c3cc4c(cc23)CN([C@@H]2CCCN(Cc3sc(C)nc3C)C2)C(=O)N4)ccn1 [Example 195]
250 to 1000 nM | Cc1cc(-c2n[nH]c3cc4c(cc23)CN([C@@H]2CCCN(CC(=O)C(C)(C)C)C2)C(=O)N4)ccn1 [Example 203]
> 1000 nM | Cc1cc(-c2n[nH]c3cc4c(cc23)CN([C@@H]2CCN(CC3CCCC3)C2)C(=O)N4)ccn1 [Example 206]
250 to 1000 nM | Cc1cc(-c2n[nH]c3cc4c(cc23)CN([C@@H]2CCN(CCC(C)C)C2)C(=O)N4)ccn1 [Example 207]
250 to 1000 nM | Cc1cc(-c2n[nH]c3cc4c(cc23)CN([C@@H]2CCCN(CC(=O)C(C)C)C2)C(=O)N4)ccn1 [Example 209]
> 1000 nM | Cc1cc(-c2n[nH]c3cc4c(cc23)CN([C@@H]2CCCN(C3CCC3)C2)C(=O)N4)ccn1 [Example 210]
250 to 1000 nM | Cc1cc(-c2n[nH]c3cc4c(cc23)CN([C@@H]2CCCN(C3CCCC3)C2)C(=O)N4)ccn1 [Example 215]
250 to 1000 nM | Cc1cc(-c2n[nH]c3cc4c(cc23)CN(C2CCOC(C)(C)C2)C(=O)N4)ccn1 (centres unmarked) [Example 219]
> 1000 nM | Cc1cc(-c2n[nH]c3cc4c(cc23)CN([C@@H]2CCCN(CC(O)C(C)(C)C)C2)C(=O)N4)ccn1 (some centres unmarked) [Example 236]
> 1000 nM | Cc1cc(-c2n[nH]c3cc4c(cc23)CN([C@@H]2CCCN(C(C)C)C2)C(=O)N4)ccn1 [Example 247]
≤ 250 nM | Cc1cc(-c2n[nH]c3cc4c(cc23)CN(CC2CCC2)C(=O)N4)ccn1 [Example 253]
> 1000 nM | Cc1cc(-c2n[nH]c3cc4c(cc23)CN([C@@H]2CCN(C)C2)C(=O)N4)ccn1 [Example 255]
> 1000 nM | CCN1CC[C@@H](N2Cc3cc4c(-c5ccnc(C)c5)n[nH]c4cc3NC2=O)C1 [Example 256]
≤ 250 nM | Cc1cc(-c2n[nH]c3cc4c(cc23)CN(CC2CC2)C(=O)N4)ccn1 [Example 258]

Reference: US10301317B2, “Inhibitors of ERK and methods of use” (Kura Oncology, Inc., priority 2013, dated 2019)
